Test results from patent US20240293483A1, “PROBIOTIC COMPOSITION FOR THE TREATMENT OF INCREASED INTESTINAL PERMEABILITY” (AB-BIOTICS, S.A., priority 2021, published 2024).

How the values were obtained:
[1] = Stability of the strain in final product (plate counting of cfus, Zone II storage); format: physicochemical; conditions: 25° C., 60% RH
Description: The product was packaged in glass amber bottles and stored under Zone II conditions (25° C., 60% Relative Humidity (RH)). […] Results were expressed in LOG (cfus). Trend line was obtained and predicted cfus at 12 months were estimated. Fold and log reduction comparing cfus between 0 and 12 months were calculated.

HSP27 = HSP27 production by Western blot; format: cell-based; conditions: Caco-2, 16 h, high-polyP supernatant (MEI) vs low-polyP supernatant (LP); normalized to β-actin
Description: The production of HSP27 was studied in Caco-2 intestinal epithelial cells in confluence by Western blot assay as described by Alcántara et al., 2018 with some modifications. Bacterial supernatants were added to the cell cultures and incubation proceeded for 16 h. MEI and LP media were used as controls. To recover HSP27, cells were lysed with […] and boiled for 5 min. Proteins were separated in SDS-PAGE gel and then transferred to a nylon membrane (blot). The blots were incubated with a rabbit polyclonal anti-HSP27 serum or with a mouse monoclonal anti-β-actin antibody (protein used for normalization). After washing, secondary antibodies peroxidase-conjugated anti-rabbit IgG and anti-mouse IgG, respectively, were used. Blots images were captured, and proteins were quantified in an Imagin 680 system.

polyP [2] = assay: PolyP amount in culture supernatants (extracellular); conditions: 16 h
Description: B. longum CECT 7894 was grown in MEI medium and Low Phosphate (LP) medium. The last medium has the same composition as MEI but without the addition of polyP precursors (K2HPO4 and KH2PO4), thus the strain cannot produce high amounts of polyP. After 16 h growth cultures were centrifuged and supernatants collected, filtered, and adjusted to neutral pH. PolyP amounts were measured as described in EXAMPLE 1.

[3] = test system: Caco-2 intestinal epithelial cells; assay: Adhesion to the intestinal epithelium in vitro; format: cell-based; conditions: Caco-2 monolayers, MOI 1:5, 1 h at 37° C., % of LOG cfu/mL
Description: Adhesion to the intestinal epithelium was studied in vitro using Caco-2 intestinal epithelial cells. Bacterial suspensions were added to Caco-2 monolayers (Multiplicity of infection (MOI) 1:5 cells to probiotic) and to wells without Caco-2 cells as controls. After 1 h of incubation at 37° C., medium was removed, cells were detached, and suspensions recovered. Bacteria were enumerated in the obtained suspension by serial dilutions and plate count. Bacteria in the medium of the control wells were also quantified. B. longum subsp. longum ATCC 15707 was used as quality control with a known adhesion percentage of 47-55.

polyP [4] = assay: Polyphosphate (polyP) production assay: hypochlorite extraction from cells, DAPI fluorescence quantification
Description: For polyP production assay, malic enzyme induction (MEI) medium containing (per liter, w/v) 0.5% yeast extract, 0.5% tryptone, 0.4% K2HPO4, 0.5% KH2PO4, 0.02% MgSO4·7H2O, 0.005% MnSO4, 1 ml of Tween 80, 0.05% cysteine, and 0.5% glucose was used (Alcántara et al. 2014). The strains unable to grow in MEI were grown in MRScys. Cultures were inoculated at OD (595 nm) 0.1 and each strain was grown under the conditions indicated above. Growth was monitored by measuring OD for 16 h.
PolyP was isolated from cells by its resistance to hydrolysis with sodium hypochlorite as previously described (Alcántara et al. 2014). Cells were harvested by centrifugation and lysed in 1 ml of 5% sodium hypochlorite with gentle agitation for 45 min at room temperature. Insoluble material was pelleted by centrifugation at 16,000 g for 5 min at 4° C. and washed twice with 1 ml of 1.5 M NaCl plus 1 mM EDTA at 16,000 g for 5 min at 4° C. PolyP was extracted from the pellets with two consecutive washes with 1 ml of water and a centrifugation step at 16,000 g for 5 min at 4° C. between them. PolyP in the pooled water extracts was precipitated by adding 0.1 M NaCl and 1 volume of ethanol, followed by incubation on ice for 1 h. After centrifugation at 16,000 g for 10 min, the polyP pellet was resuspended in 50 μL of water.
A standard curve relating phosphate amount to fluorescence intensity was built to quantify the extracted polyP from the strains. As a first step, serial dilutions of a sample of polyP isolated from the polyphosphate-producer control strain Lactiplantibacillus plantarum strain WCFS1 (Alcántara et al. 2014) were prepared. Second, the dilutions were hydrolyzed with a volume of 2 M HCl, incubated at 95° C. for 15 min to release phosphate and then neutralized by adding […] of 2 M NaOH. Third, the released phosphate from each dilution was quantified with BIOMOL Green Kit (Enzo Life Sciences) as recommended by the manufacturer. In parallel, the released phosphate from each dilution was dyed using 4′,6-diamidino-2-phenylindole (DAPI) at a final concentration of 10 μM in 50 mM Tris-HCl pH 7.5, 50 mM NaCl buffer and fluorescence was measured with an excitation wavelength of 415 nm and emission at 550 nm in a fluorimeter. Finally, a standard curve was built with phosphate values and the corresponding fluorescence values obtained.
Once the standard curve is obtained, polyP amounts from the samples can be quantified according to fluorescence values, without the need of using BIOMOL Green kit. Therefore, the quantification of polyP from the strain samples was indirectly measured by DAPI fluorescence using the standard curve. Firstly, the extracted polyP was measured by fluorescence using DAPI at a final concentration of 10 μM in 50 mM Tris-HCl pH 7.5, 50 mM NaCl buffer with an excitation wavelength of 415 nm and emission at 550 nm in a fluorimeter. Then, the amount of polyP was calculated as nmol of phosphate by means of the standard curve. At least three biological replicates were performed.
B. longum CECT 7894 was grown in medium MEI without glucose supplemented with i) breast milk (1% v/v); ii) LNT (1% w/v); iii) polyamines, in quantities found in breast milk: 70.0, 424.2 and 610.0 […] of putrescine, spermidine and spermine, respectively, and glucose (0.5% w/v); and iv) glucose (0.5% w/v) as positive control. Growth (OD550) and polyP production were determined after 6 and 16 h of incubation.

Zonula ocludens-1 (ZO1) = assay: Expression of tight junction genes by qPCR: ZO1; format: cell-based; conditions: Caco-2, 16 h, high-polyP vs low-polyP supernatant
Description: (§1) Caco-2 cells were exposed for 16 h to supernatants of B. longum CECT 7894 grown in MEI and LP media. Then, cells were recovered, and RNA extracted with TRIZOL reagent. cDNA was obtained from RNA using SuperScript VILO cDNA synthesis kit. Quantitative PCR (qPCR) reactions were performed with SYBR Green in the conditions indicated by manufacturer. Expression of tight junction proteins Zonula ocludens-1 (ZO1), Junctional adhesion protein-1 (JAM1) and occluding was quantified. Expression of 18S rRNA and GADPH genes were used for normalization.

Occludin = assay: Expression of tight junction genes by qPCR: occludin; format: cell-based; conditions: Caco-2, 16 h, high-polyP vs low-polyP supernatant
Description: as §1

[5] = test system: dextran sulfate sodium (DSS)-induced colitis; conditions: mice, combined with infliximab; cited from earlier work
Caco-2 cells monolayer = assay: Barrier integrity (TEER) and permeability (Papp of Lucifer Yellow) of Caco-2 monolayer; format: cell-based; conditions: Caco-2, 72 h apical exposure to high-polyP supernatant (MEI culture) vs low-polyP supernatant and controls
Description: Integrity of Caco-2 cells monolayer was evaluated by measuring transepithelial electrical resistance (TEER) and permeability by the apparent permeability coefficients (Papp) of the paracellular transport marker Lucifer Yellow.
Caco-2 cells were seed in porous membrane inserts with apical (upper) and basolateral (lower) compartments. Medium Essential Medium Eagle (MEM) was added to both compartments. Cells were treated with supernatants of B. longum CECT 7894 grown in MEI and LP media. Additional cells were treated with MEM, non-fermented MEI and LP media and used as controls.
After 72 h of treatment, TEER and permeability were determined. TEER was measured with a Millicell®-ERS voltammeter. For the permeability assay, Lucifer Yellow was added to the apical compartment. At 15, 30, 45, 60, 90 and 120 min, aliquots were taken from the basolateral compartment and the fluorescence of the Lucifer Yellow transported was measured with a fluorescence microplate reader at excitation/emission wavelengths of 485/520 nm.

[6] = test system: Junctional adhesion protein-1 (JAM1); assay: Expression of tight junction genes by qPCR: JAM1; format: cell-based; conditions: Caco-2, 16 h, high-polyP vs low-polyP supernatant
Description: as §1

Substance: Bifidobacterium longum subsp. longum KABP-042 (CECT 7894)
- LOG (cfus) estimated at 12 months ([1]; final product in sunflower oil, trend line from 0-6 months): 9.01 LOG (cfus)
- LOG loss over 12 months ([1]; final product, 0 vs 12 months): ~0.5 LOG
- production of HSP27 (HSP27): significantly higher production of HSP27
- PolyP amount in supernatant, MEI medium (polyP [2]; high phosphate (MEI medium)): 2.24 nmol
- PolyP amount in supernatant, LP medium (polyP [2]; low phosphate (LP medium)): 0.22 nmol
- Adhesion to intestinal epithelium (%) [3]: 70.8%
- Adhesion to intestinal epithelium (%) ([3]; listed as B. longum subsp. longum KABP042 (CECT 7894)): 70.8%
- times more polyP than B. scardovii BAA-773 (polyP [4]; 6 h): 140 times
- times more polyP than L. plantarum WCFS1 (polyP [4]; 6 h values (12.7 vs 230.9 nmol)): 18 times
- PolyP 6 h, Polyamines (polyP [4]; MEI + polyamines (putrescine, spermidine, spermine) + glucose 0.5%, 6 h): 111.0 nmol
- PolyP 16 h, Polyamines (polyP [4]; MEI + polyamines + glucose 0.5%, 16 h): 48.6 nmol
- PolyP 6 h (polyP [4]; MEI or MRScys, inoculated at OD 0.1, 6 h of growth, nmol of phosphate): 230.9 nmol
- PolyP 16 h (polyP [4]; MEI or MRScys, inoculated at OD 0.1, 16 h of growth, nmol of phosphate): 258.3 nmol
- PolyP 6 h, Control (glucose) (polyP [4]; MEI with glucose 0.5%, 6 h): 110.2 nmol
- PolyP 16 h, Control (glucose) (polyP [4]; MEI with glucose 0.5%, 16 h): 70.2 nmol
- PolyP 6 h, LNT (polyP [4]; MEI without glucose + LNT 1% w/v, 6 h): 117.0 nmol
- PolyP 16 h, LNT (polyP [4]; MEI without glucose + LNT 1% w/v, 16 h): 145.0 nmol
- PolyP 6 h, Breast milk (polyP [4]; MEI without glucose + breast milk 1% v/v, 6 h): 18.5 nmol
- PolyP 16 h, Breast milk (polyP [4]; MEI without glucose + breast milk 1% v/v, 16 h): 2.0 nmol
- expression of tight junction protein ZO1 (Zonula ocludens-1 (ZO1)): induced
- expression of tight junction protein Occludin (Occludin): induced
- effect on efficacy of infliximab in DSS-induced colitis [5]: improved the efficacy of infliximab
- transepithelial electrical resistance (TEER) (Caco-2 cells monolayer): higher TEER
- expression of tight junction protein JAM1 [6]: induced
